“Also recorded” adds a separate entry of the source.
Legend:
PDE 5 [1] = molecular target: T1, PDE 5 (Homo sapiens, UniProt O76074); conditions: disclosed in U.S. Ser. No. 09/940,760; cited from earlier work
CYP3A4 = molecular target: T2, CYP3A4 (Homo sapiens, UniProt P08684); assay: Incubation of Compound A with CYP3A4 SUPERSOMES and NADPH-generating system; format: in vitro ADME
T2 construct: purchased; host or cells: An insect cell host is inferred from the 'Insect Microsomes' control
Method: (§1) Compound C was prepared via a biotransformation from Compound A. In vitro incubations of Compound A (1, 5 and 50 μM) were performed with pooled human liver microsomes and CYP3A4 SUPERSOMES®. This radiolabel allowed tracking of all the metabolites of Compound A. For this procedure, Compound A was synthesized by inserting a ^14C in the 4 position as indicated in the ring member numbering scheme below.
(§2) Incubation mixtures contained cytochrome P450 (1 nmol/mL for human liver microsomes or 0.2 nmol/mL for CYP3A4), β-NADP^+ (1 mM), glucose-6-phosphate (5 mM), glucose-6-phosphate dehydrogenase (1.5 units/mL) and 3 mM magnesium chloride in 0.5 mL of 50 mM potassium phosphate buffer (pH 7.4). Prior to the addition of drug, incubation mixtures were pre-incubated for 3 min at about 37° C. […] Boiled human liver microsomes and incubations without NADPH served as negative control. […]
(§3) Radiometric profiles of metabolites following 120 min incubation of Compound A (50 μM) with CYP3A4, Human Liver Microsomes, and Insect Microsomes, all with a NADPH-generating system, are shown in FIGS. 1, 2, and 3, respectively. In these figures, the y-axis reflects radioactivity of the eluted species and has units of counts per minute, while the x-axis reflects time of elution and has units of minutes. […] Mass-to-charge ratios are measured by mass spectrometry.

[2] = Incubation of Compound A with pooled human liver microsomes and NADPH-generating system; format: in vitro ADME
Method: as §1, §2, §3

[3] = Incubation of Compound A with Control Insect Microsomes and NADPH-generating system; format: in vitro ADME; conditions: Compound A 50 μM, 120 min, Control Insect Microsomes, FIG. 3
Method: Incubation mixtures contained cytochrome P450 (1 nmol/mL for human liver microsomes or 0.2 nmol/mL for CYP3A4), β-NADP^+ (1 mM), glucose-6-phosphate (5 mM), glucose-6-phosphate dehydrogenase (1.5 units/mL) and 3 mM magnesium chloride in 0.5 mL of 50 mM potassium phosphate buffer (pH 7.4). Prior to the addition of drug, incubation mixtures were pre-incubated for 3 min at about 37° C. […] Boiled human liver microsomes and incubations without NADPH served as negative control. A discussion of HPLC is provided in “HPLC in Pharmaceutical Analysis,” vol. I, G. Szepesi (1990). A discussion of mass spectrometry is provided in “Remington: The Science and Practice of Pharmacy,” 20th Ed., D. Limmer, ed., pp. 636-639 (2000).
Radiometric profiles of metabolites following 120 min incubation of Compound A (50 μM) with CYP3A4, Human Liver Microsomes, and Insect Microsomes, all with a NADPH-generating system, are shown in FIGS. 1, 2, and 3, respectively. In these figures, the y-axis reflects radioactivity of the eluted species and has units of counts per minute, while the x-axis reflects time of elution and has units of minutes. Each peak represents one or more compounds, and each of the more significant peaks is labeled with the mass-to-charge ratio value (m/z) of that compound. Mass-to-charge ratios are measured by mass spectrometry.

[4] = Circulating metabolites after single oral administration of Compound A to humans; format: in vivo; conditions: single administration of Compound A 100 mg PO
PDE 5 [5] = molecular target: T1, PDE 5; assay: PDE 5 inhibitory activity; format: biochemical; conditions: target not stated at the place; PDE 5 from context

T2 sequence (P08684 whole entry): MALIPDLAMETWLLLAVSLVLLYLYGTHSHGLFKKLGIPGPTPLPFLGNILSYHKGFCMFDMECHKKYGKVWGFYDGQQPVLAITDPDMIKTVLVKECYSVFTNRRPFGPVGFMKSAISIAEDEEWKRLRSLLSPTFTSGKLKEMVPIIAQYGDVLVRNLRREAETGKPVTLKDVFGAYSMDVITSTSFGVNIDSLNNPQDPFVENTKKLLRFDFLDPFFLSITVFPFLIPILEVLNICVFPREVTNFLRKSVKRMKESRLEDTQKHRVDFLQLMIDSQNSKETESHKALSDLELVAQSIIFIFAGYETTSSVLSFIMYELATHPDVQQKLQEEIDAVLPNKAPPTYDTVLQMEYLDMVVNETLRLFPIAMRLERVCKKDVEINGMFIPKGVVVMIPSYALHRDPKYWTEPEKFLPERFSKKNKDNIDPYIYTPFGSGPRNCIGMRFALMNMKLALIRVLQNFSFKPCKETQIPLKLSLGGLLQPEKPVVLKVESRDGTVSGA

Row | metabolite formed from Compound A (radiometric profile) (CYP3A4; Compound A 50 μM, 120 min, CYP3A4, FIG. 1) | metabolite formed from Compound A (radiometric profile) ([2]; Compound A 50 μM, 120 min, Human Liver Microsomes, FIG. 2) | IC50 (PDE 5 [5]) [nM] | Structure (SMILES) | PDE 5 inhibitory activity (PDE 5 [1]) | activity with respect to the formation of Compound C (CYP3A4; 50 μM Compound A, cDNA-expressed CYP3A4) | extent of metabolism ([2]; 1, 5 and 50 μM, human liver microsomes 1 nmol/mL, NADPH-generating system) | metabolite formation [3] | circulating metabolite in human [4]
1 |  |  |  | CCn1c(=O)c2c(nc(N[C@@H]3CCC[C@H]3O)n2Cc2ccc(OC)c(Br)c2)n(CCO)c1=O [Compound A] | having PDE 5 inhibitory activity | exhibited the greatest activity | metabolized extensively | no major metabolite formation was observed | 
2 | significant metabolite | significant metabolite | 71 | CCn1c(=O)c2c(nc(N)n2Cc2ccc(OC)c(Br)c2)n(CCO)c1=O [Compound C, 8-Amino-7-[(3-Bromo-4-Methoxyphenyl)Methyl]-1-Ethyl-3,7-Dihydro-3-(2-Hydroxyethyl)-1H-Purine-2,6-Dione] |  |  |  |  | one of the major circulating metabolites; also recorded: prominent circulating metabolite

Source: patent US7312223B2, “Metabolite of xanthine Phosphodiesterase 5 inhibitor and derivatives thereof useful for treatment of erectile dysfunction” (Schering Corporation, priority 2003, dated 2007)
